ChEMBL document CHEMBL1156671, “QSAR studies on benzoylaminobenzoic acid derivatives as inhibitors of beta-ketoacyl-acyl carrier protein synthase III” (Eur J Med Chem, 2008)

How the values were obtained:
Staphylococcus aureus = test: Antibacterial activity against Staphylococcus aureus; assay type: functional
Escherichia coli = test: Antibacterial activity against Escherichia coli; assay type: functional
Streptococcus pneumoniae = test: Antibacterial activity against Streptococcus pneumoniae; assay type: functional
Neisseria meningitidis = test: Antibacterial activity against Neisseria meningitidis; assay type: functional
[1] = molecular target: T1, Beta-ketoacyl-[acyl-carrier-protein] synthase III (Enterococcus faecalis (strain ATCC 700802 / V583), UniProt Q820T1); test: Inhibition of Enterococcus faecalis FabH by FabD/FabH coupled assay
T1 sequence (Q820T1 whole entry): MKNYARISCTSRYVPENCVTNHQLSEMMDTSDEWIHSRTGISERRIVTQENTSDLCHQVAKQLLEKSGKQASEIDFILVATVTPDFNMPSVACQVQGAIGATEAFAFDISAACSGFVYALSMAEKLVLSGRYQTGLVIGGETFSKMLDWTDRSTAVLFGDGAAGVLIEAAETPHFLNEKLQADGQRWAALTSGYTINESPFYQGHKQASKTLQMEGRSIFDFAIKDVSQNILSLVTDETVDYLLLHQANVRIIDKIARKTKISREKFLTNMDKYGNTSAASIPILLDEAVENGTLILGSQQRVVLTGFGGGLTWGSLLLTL

CC(C)c1cccc(-c2ccc(C(=O)Nc3ccccc3C(=O)O)cc2Oc2ccccc2)c1
-logMIC (Staphylococcus aureus): 5.252 | -logMIC (Escherichia coli): 5.553 | -logMIC (Streptococcus pneumoniae): 5.854 | -logMIC (Neisseria meningitidis): 5.854

O=C(Nc1ccccc1C(=O)O)c1cc(O)cc(Oc2ccccc2)c1
IC50 [1]: 410 nM

O=C(Nc1ccccc1C(=O)O)c1ccc(-c2ccccc2)c(Oc2ccccc2)c1
-logMIC (Staphylococcus aureus): 4.947 | -logMIC (Escherichia coli): 5.854 | -logMIC (Streptococcus pneumoniae): 5.854 | -logMIC (Neisseria meningitidis): 5.854

O=C(Nc1ccccc1C(=O)O)c1cc(O)c(-c2ccccc2)c(Oc2ccccc2)c1
-logMIC (Staphylococcus aureus): 4.658 | -logMIC (Escherichia coli): 5.854 | IC50 [1]: 4 nM | -logMIC (Streptococcus pneumoniae): 4.658 | -logMIC (Neisseria meningitidis): 5.854

O=C(Nc1ccccc1C(=O)O)c1ccc(-c2ccc(F)cc2F)c(Oc2ccccc2)c1
-logMIC (Staphylococcus aureus): 5.252 | -logMIC (Escherichia coli): 6.155 | -logMIC (Streptococcus pneumoniae): 5.553 | -logMIC (Neisseria meningitidis): 6.444

O=C(NC1=CCSC1C(=O)O)c1cccc(Oc2ccccc2)c1 (stereo not given)
IC50 [1]: 10100 nM

O=C(NC1SC=CC1C(=O)O)c1cccc(Oc2ccccc2)c1 (stereo not given)
IC50 [1]: 43000 nM

O=C(Nc1ccccc1C(=O)O)c1ccc(-c2ccc(C(F)(F)F)cc2)c(Oc2ccccc2)c1
-logMIC (Staphylococcus aureus): 5.252 | -logMIC (Escherichia coli): 6.155 | -logMIC (Streptococcus pneumoniae): 6.155 | -logMIC (Neisseria meningitidis): 5.854

Cc1cc(-c2ccc(C(=O)Nc3ccccc3C(=O)O)cc2Oc2ccccc2)ccc1Cl
-logMIC (Staphylococcus aureus): 5.252 | -logMIC (Escherichia coli): 6.155 | -logMIC (Streptococcus pneumoniae): 5.553 | -logMIC (Neisseria meningitidis): 6.155

Cc1cc(-c2ccc(C(=O)Nc3ccccc3C(=O)O)cc2Oc2ccccc2)ccc1F
-logMIC (Staphylococcus aureus): 5.252 | -logMIC (Escherichia coli): 6.155 | -logMIC (Streptococcus pneumoniae): 6.155 | -logMIC (Neisseria meningitidis): 6.155

CS(=O)(=O)c1ccc(-c2ccc(C(=O)Nc3ccccc3C(=O)O)cc2Oc2ccccc2)cc1
-logMIC (Staphylococcus aureus): 4.347 | -logMIC (Escherichia coli): 5.252 | -logMIC (Streptococcus pneumoniae): 4.347 | -logMIC (Neisseria meningitidis): 5.252

CC1CC(C)CN(c2ccc(C(=O)Nc3ccccc3C(=O)O)cc2Oc2ccccc2)C1 (stereo not given)
-logMIC (Staphylococcus aureus): 5.252 | -logMIC (Escherichia coli): 5.252 | -logMIC (Streptococcus pneumoniae): 5.553 | -logMIC (Neisseria meningitidis): 5.553

O=C(Nc1ccccc1C(=O)O)c1cc(O)c(Br)c(Oc2ccccc2)c1
-logMIC (Staphylococcus aureus): 4.347 | -logMIC (Escherichia coli): 5.553 | IC50 [1]: 62.1 nM | -logMIC (Streptococcus pneumoniae): 4.347 | -logMIC (Neisseria meningitidis): 5.553
